From US20070015741A1, “Novel prodrugs of estradiol” (priority 2005, published 2007)

Test: Stability at 40° C./75% RH, prodrug assayed by HPLC for degradation to parent compound estradiol
Assay type: physicochemical
Settings: HPLC assay of prodrug
Procedure: The following is an example of stability for the preferred compound described previously. Stability was conducted at 40° C./75% RH, with the prodrug being assayed at specific time-points for degradation to the parent compound, estradiol. The time-points for stability were T=0 months, T=2 weeks, T=1 month, and T=3 months. The following outlines the conditions utilized for analysis of the prodrug. Analysis was conducted using High-Performance Liquid Chromatography (HPLC). The retention time for estradiol lactate acetate was approximately 9.0 minutes using these conditions. Conditions for HPLC analysis: [table]

For estradiol lactate-acetate, the “Assay (%) T = 0” value (T=0 months) was 94.45%, the “Assay (%) T = 1” value (T=1 month) was 92.77% and the “Assay (%) T = 2 W” value (T=2 weeks) was 93.47%. The “Assay (%) T = 3” value (T=3 months) was 94.3%.
